Values after ≈ are worked out from the molar mass of the structure shown. Read-outs that look alike come from different tables or passages of the source.
How the values were obtained:
[1] = test system: Pasteurella hemolytica 22C; experiment: MIC, broth-dilution microtiter test, Pasteurella hemolytica 22C; type: cell-based; conditions: Pasteurella hemolytica 22C, broth-dilution microtiter
Description: (§1) The MIC's in Table X were obtained using conventional broth-dilution microtiter tests.

Mycoplasma hyorhinis = experiment: MIC, broth-dilution microtiter test, Mycoplasma hyorhinis; type: cell-based
Description: as §1

Mycoplasma gallisepticum = experiment: MIC, broth-dilution microtiter test, Mycoplasma gallisepticum; type: cell-based
Description: as §1

[2] = test system: Pasteurella multocida 17E; experiment: MIC, broth-dilution microtiter test, Pasteurella multocida 17E; type: cell-based; conditions: Pasteurella multocida 17E, bovine isolate, broth-dilution microtiter
Description: as §1

Streptococcus bovis 80 = experiment: MIC, broth-dilution microtiter test, Streptococcus bovis 80; type: cell-based
Description: as §1

[3] = test system: Pasteurella multocida 60A; experiment: MIC, broth-dilution microtiter test, Pasteurella multocida 60A; type: cell-based; conditions: Pasteurella multocida 60A, avian isolate, broth-dilution microtiter
Description: as §1

Staphylococcus aureus = experiment: MIC, broth-dilution microtiter test, Staphylococcus aureus; type: cell-based
Description: as §1

Mycoplasma synoviae = experiment: MIC, broth-dilution microtiter test, Mycoplasma synoviae; type: cell-based; conditions: Mycoplasmopsis synoviae
Description: as §1

[4] = test system: Staphylococcus aureus X1.1; experiment: MIC, standard agar-dilution assay, Staphylococcus aureus X1.1; type: cell-based
[5] = test system: Staphylococcus aureus S13E; experiment: MIC, standard agar-dilution assay, Staphylococcus aureus S13E; type: cell-based
[6] = test system: Staphylococcus epidermidis EPI1; experiment: MIC, standard agar-dilution assay, Staphylococcus epidermidis EPI1; type: cell-based
[7] = test system: Staphylococcus aureus V41; experiment: MIC, standard agar-dilution assay, Staphylococcus aureus V41; type: cell-based
[8] = test system: Streptococcus pneumoniae Park I; experiment: microbe, parasite or virus in culture; type: cell-based
[9] = test system: Staphylococcus epidermidis EPI2; experiment: MIC, standard agar-dilution assay, Staphylococcus epidermidis EPI2; type: cell-based
Streptococcus Group 9960 = experiment: MIC, standard agar-dilution assay, Streptococcus Group 9960; type: cell-based; conditions: Streptococcus Group 9960, agar dilution
[10] = test system: Streptococcus pyogenes C203; experiment: MIC, standard agar-dilution assay, Streptococcus pyogenes C203; type: cell-based
[11] = test system: Streptococcus Group D X66; experiment: MIC, standard agar-dilution assay, Streptococcus Group D X66; type: cell-based; conditions: Streptococcus Group D X66, agar dilution
[12] = test system: Staphylococcus aureus X400; experiment: MIC, standard agar-dilution assay, Staphylococcus aureus X400; type: cell-based
[13] = test system: Streptococcus pyogenes C203; experiment: In vivo protection of mice experimentally infected with S. pyogenes C203; conditions: mice, doses given 1 and 4 hours post-infection; for ED50: Streptococcus pyogenes
Procedure: The C-20 modified derivatives of this invention have shown in vivo antimicrobial activity against experimentally-induced infections in laboratory animals. When two doses of test compound were administered to mice experimentally infected with S. pyogenes C203, the activity observed was measured as an ED50 value [effective dose in mg/kg to protect 50% of the test animals: see Warren Wick, et al., J. Bacteriol. 81, 233-235 (1961)].

[14] = test system: Haemophilus influenzae R252; experiment: MIC, standard agar-dilution assay, Haemophilus influenzae R252; type: cell-based
[15] = test system: Haemophilus influenzae Holt; experiment: MIC, standard agar-dilution assay, Haemophilus influenzae Holt; type: cell-based; conditions: Haemophilus influenzae Holt; ampicillin-sensitive strain; agar dilution
[16] = Streptococcus equinus, Streptococcus bovis 80, broth-dilution microtiter, read-out: MIC
[17] = Staphylococcus epidermidis, EPI1
[18] = Staphylococcus epidermidis, EPI2
[19] = C203, sc, subcutaneous, read-out: ED50, Subcutaneous
[20] = C203, oral, read-out: ED50, Oral

SMILES: CCC1OC(=O)CC(O)C(C)C(OC2OC(C)C(OC3CC(C)(O)C(O)C(C)O3)C(N(C)C)C2O)C(CCOS(=O)(=O)c2ccc(C)cc2)CC(C)C(=O)C=CC(C)=CC1COC1OC(C)C(O)C(O)C1OC (stereo not drawn) [Compound 56, 20-DH-20-O-(p-Toluenesulfonyl)macrocin]
- MIC ([1]; read-out: MIC): > 50 µg/mL
- MIC (Mycoplasma hyorhinis; Mycoplasma hyorhinis, broth-dilution microtiter, read-out: MIC): > 50 µg/mL
- MIC (Mycoplasma gallisepticum; Mycoplasmoides gallisepticum): 1.56 µg/mL (≈ 1.47 µM)
- MIC ([2]; read-out: MIC): > 50 µg/mL
- MIC (Streptococcus bovis 80; [16]): 6.25 µg/mL (≈ 5.91 µM)
- MIC ([3]; read-out: MIC): > 50 µg/mL
- MIC (Staphylococcus aureus): 3.12 µg/mL (≈ 2.95 µM)
- MIC (Mycoplasma synoviae): 12.5 µg/mL (≈ 11.8 µM)

SMILES: CCC1OC(=O)CC(O)C(C)C(OC2OC(C)C(O)C(N(C)C)C2O)C(CCI)CC(C)C(=O)C=CC(C)=CC1COC1OC(C)C(O)C(O)C1OC (stereo not drawn) [Compound 57, 20-DH-DO-20-Iodolactenocin]
- MIC ([4]; Staphylococcus aureus, X1.1): 0.5 µg/mL (≈ 0.575 µM)
- MIC ([1]; read-out: MIC): 25 µg/mL (≈ 28.7 µM)
- MIC ([5]; Staphylococcus aureus, S13E): 0.5 µg/mL (≈ 0.575 µM)
- MIC (Mycoplasma hyorhinis; Mycoplasma): 50 µg/mL (≈ 57.5 µM)
- MIC (Mycoplasma gallisepticum; Mycoplasmoides gallisepticum): 3.12 µg/mL (≈ 3.59 µM)
- MIC ([2]; read-out: MIC): 25 µg/mL (≈ 28.7 µM)
- MIC [6, 17]: 0.5 µg/mL (≈ 0.575 µM)
- MIC ([7]; Staphylococcus aureus, V41): 0.5 µg/mL (≈ 0.575 µM)
- MIC ([8]; Streptococcus pneumoniae): 4 µg/mL (≈ 4.6 µM)
- MIC (Streptococcus bovis 80; Streptococcus equinus, 80): 3.12 µg/mL (≈ 3.59 µM)
- MIC [9, 18]: 0.5 µg/mL (≈ 0.575 µM)
- MIC (Streptococcus Group 9960; GROUP9960, read-out: MIC): 16 µg/mL (≈ 18.4 µM)
- MIC ([10]; Streptococcus pyogenes, C203): 0.5 µg/mL (≈ 0.575 µM)
- MIC ([11]; read-out: MIC): 16 µg/mL (≈ 18.4 µM)
- MIC ([12]; Staphylococcus aureus, X400): 1 µg/mL (≈ 1.15 µM)
- MIC ([3]; read-out: MIC): 25 µg/mL (≈ 28.7 µM)
- MIC (Staphylococcus aureus): 0.78 µg/mL (≈ 0.897 µM)
- MIC (Mycoplasma synoviae): 1.56 µg/mL (≈ 1.79 µM)
- ED50 [13, 19]: 5.2 mg/kg
- ED50 [13, 20]: 79 mg/kg

SMILES: CCC1CC(C)C(=O)C=CC(C)=CC(COC2OC(C)C(O)C(O)C2OC)C(CC)OC(=O)CC(O)C(C)C1OC1OC(C)C(O)C(N(C)C)C1O (stereo not drawn) [Compound 60, 20-DH-DO-Lactenocin]
- MIC ([4]; Staphylococcus aureus, X1.1): 0.25 µg/mL (≈ 0.336 µM)
- MIC ([1]; read-out: MIC): 25 µg/mL (≈ 33.6 µM)
- MIC ([5]; Staphylococcus aureus, S13E): 0.25 µg/mL (≈ 0.336 µM)
- MIC (Mycoplasma hyorhinis; Mycoplasma): 50 µg/mL (≈ 67.2 µM)
- MIC (Mycoplasma gallisepticum; Mycoplasmoides gallisepticum): 1.56 µg/mL (≈ 2.1 µM)
- MIC ([14]; Haemophilus influenzae, R252): 16 µg/mL (≈ 21.5 µM)
- MIC ([2]; read-out: MIC): 25 µg/mL (≈ 33.6 µM)
- MIC [6, 17]: 0.25 µg/mL (≈ 0.336 µM)
- MIC ([7]; Staphylococcus aureus, V41): 0.25 µg/mL (≈ 0.336 µM)
- MIC ([8]; Streptococcus pneumoniae): 0.5 µg/mL (≈ 0.672 µM)
- MIC (Streptococcus bovis 80; [16]): 6.25 µg/mL (≈ 8.4 µM)
- MIC [9, 18]: 0.25 µg/mL (≈ 0.336 µM)
- MIC (Streptococcus Group 9960; GROUP9960, read-out: MIC): 8 µg/mL (≈ 10.8 µM)
- MIC ([11]; read-out: MIC): 8 µg/mL (≈ 10.8 µM)
- MIC ([12]; Staphylococcus aureus, X400): 0.5 µg/mL (≈ 0.672 µM)
- MIC ([3]; read-out: MIC): 25 µg/mL (≈ 33.6 µM)
- MIC (Staphylococcus aureus): 0.78 µg/mL (≈ 1.05 µM)
- MIC (Mycoplasma synoviae; Mycoplasma synoviae, broth-dilution microtiter, read-out: MIC): > 50 µg/mL
- ED50 [13, 19]: 3.9 mg/kg
- ED50 [13, 20]: 46 mg/kg

SMILES: CCC(=O)OC1C(OC2C(CCCl)CC(C)C(=O)C=CC(C)=CC(COC3OC(C)C(O)C(OC)C3OC)C(CC)OC(=O)CC(O)C2C)OC(C)C(OC2CC(C)(O)C(O)C(C)O2)C1N(C)C (stereo not drawn) [Compound 63, 20-DH-DO-20-Chloro-2'-O-propionyltylosin]
- MIC ([4]; Staphylococcus aureus X1.1, agar dilution): 1 µg/mL (≈ 1.01 µM)
- MIC [1]: -- (Not active at 50 mcg/ml, the highest level tested)
- MIC ([5]; Staphylococcus aureus S13E, agar dilution): 1 µg/mL (≈ 1.01 µM)
- MIC (Mycoplasma hyorhinis; Mycoplasma hyorhinis, broth-dilution microtiter): 50 µg/mL (≈ 50.4 µM)
- MIC (Mycoplasma gallisepticum; Mycoplasma gallisepticum, broth-dilution microtiter): 1.56 µg/mL (≈ 1.57 µM)
- MIC ([14]; Haemophilus influenzae R252, ampicillin-resistant strain, agar dilution): -- (Not active at 128 mcg/ml, the highest level tested)
- MIC [2]: -- (Not active at 50 mcg/ml, the highest level tested)
- MIC ([6]; Staphylococcus epidermidis EPI1, agar dilution): 1 µg/mL (≈ 1.01 µM)
- MIC ([7]; Staphylococcus aureus V41, penicillin-resistant strain, agar dilution): 1 µg/mL (≈ 1.01 µM)
- MIC ([8]; Streptococcus pneumoniae Park I, agar dilution): 16 µg/mL (≈ 16.1 µM)
- MIC (Streptococcus bovis 80; Streptococcus bovis 80, broth-dilution microtiter): 25 µg/mL (≈ 25.2 µM)
- MIC ([9]; Staphylococcus epidermidis EPI2, agar dilution): 1 µg/mL (≈ 1.01 µM)
- MIC (Streptococcus Group 9960): -- (Not active at 128 mcg/ml, the highest level tested)
- MIC ([10]; Streptococcus pyogenes C203, agar dilution): 0.5 µg/mL (≈ 0.504 µM)
- MIC [11]: -- (Not active at 128 mcg/ml, the highest level tested)
- MIC ([12]; Staphylococcus aureus X400, methicillin-resistant strain, agar dilution): 2 µg/mL (≈ 2.01 µM)
- MIC [3]: -- (Not active at 50 mcg/ml, the highest level tested)
- MIC (Staphylococcus aureus; broth-dilution microtiter): 6.25 µg/mL (≈ 6.3 µM)
- ED50, Oral ([13]; oral): 22 mg/kg × 2
- ED50, Subcutaneous ([13]; subcutaneous): > 6.3 mg/kg × 2
- MIC [15]: -- (Not active at 128 mcg/ml, the highest level tested)

Source: US4443436A, “C-20-Modified macrolide derivatives of the macrolide antibiotics tylosin, desmycosin, macrocin, and lactenocin” (Eli Lilly and Company, priority 1982, dated 1984)
